In brackets after ≈: the same amount, converted by molar mass. Read-outs that look alike come from different tables or passages of the source.
How the values were obtained:
[1] = tested on: S. aureus MW2 24 h established biofilm; conditions: 24 h treatment
Method: 346 plated onto TSA plates, and incubated plates at 37°C overnight. The next day, we counted the
347 viable bacterial colonies.
We used TSB medium containing
356 bacteria with water as the positive control, while TSB media with sterile water served as the
357 negative control. After incubation, we carefully removed the TSB medium and washed the wells
358 with PBS (Gibco, MD, USA) to remove loosely attached planktonic cells. We quantified the
359 biomass by staining the biofilms with crystal violet following an established protocol and
360 quantitated the concentration of peptide that inhibits 50% of biofilm formation (MBIC50)(8). We
361 measured the live cell count of the biofilms using XTT dye [2,3-bis(2-methyloxy-4-nitro-5-
362 sulfophenyl)-2H-tertazolium-5-carboxanilide] (ATCC, VA, USA). We calculated the percentage
363 of biofilm growth by normalizing to biofilm growth in wells containing bacteria without peptide
366 Disruption of S. aureus MW2 established biofilms
367 We evaluated the ability of the citropin 1.1-derived peptides to disrupt established biofilms
368 following an established protocol with modifications (5). We prepared exponential cultures of S.
369 aureus MW2 (adjusted to 1 × 10^6 CFU/ml) in TSB medium (supplemented with 0.2% glucose)
370 from overnight grown cultures. We added 100 µl of bacterial culture to flat-bottomed 96-well
371 polystyrene microtiter plates (Cat no. 3595, Corning, NY, USA). We then incubated the plates at
372 37°C for 24 hours in static conditions to allow biofilm formation. After incubation, we carefully
373 pipetted out the TSB medium and washed the wells with PBS (Gibco, MD, USA) to remove
374 loosely attached planktonic cells. We treated the established biofilms in each well with 10 µl of
375 serially diluted 10× peptide solution, followed by the addition of 90 μl TSB medium
376 (supplemented with 0.2% glucose). We incubated the plates for another 24 h at 37°C before
377 processing biomass and live-cell contents. We calculated the concentration of peptide that disrupts
378 50% of established biofilms (MBEC50).

S. aureus isolates [2] = assay: microbe, parasite or virus in culture; conditions: Staphylococcus aureus
Method: (§17) 306 To determine the minimum concentration of peptide that inhibits the growth of bacteria,
(§18) 307 termed as the minimal inhibitory concentration (MIC), we used the broth microdilution method
(§19) 308 described by the Clinical and Laboratory Standards Institute (4). We made serial dilutions of 10×
(§20) 309 concentrated peptides (10 µl) in duplicate in 96-well plates (Cat no. 3595, Corning, NY, USA).
(§21) 310 We added 90 µl of logarithmic-phase bacteria at 1 × 10^6 CFU/ml (in TSB medium) to the peptides
(§22) 311 and then incubated the plates at 37°C for 18 hours. We determined the MIC using OD600
(§23) 312 measurements taken on a Spectra Max i3x spectrophotometer (Molecular Devices, CA, USA).

[3] = tested on: S. aureus MW2 (MRSA) exponential and persister cells; assay: S. aureus persister cell and time-kill assays (MW2); format: cell-based, Staphylococcus aureus; conditions: approximately 1 × 10^8 CFU, 10 × MIC
Method: (§1) 305 Minimal inhibitory concentration (MIC) assay
(§2) We made serial dilutions of 10×
(§3) We determined the MIC using OD600
(§4) Accordingly, we added 150 mM NaCl,
(§5) 319 established protocol (5).
(§6) 323 aureus VRS1) in PBS. To assess the killing kinetics of CIT-8 in persister cells, we added 1 ml of
(§7) 324 cell suspension to the wells of a 2-ml deep-well assay block (Cat no. 3960, Corning, NY, USA)
(§8) We also included ciprofloxacin (at 10 μg/ml) for S.
(§9) 326 aureus MW2 and linezolid (100 μg/ml) for S. aureus VRS1 as antibiotic controls. Additionally,
(§10) 327 we included bithionol (at 10 μg/ml) as a positive control, known for its ability to kill stationary
(§11) 328 phase persister cells (6). We incubated the plates at 37°C, with shaking at 225 rpm. At specific
(§12) 329 times (0, 15, 30, 60, and 120 min), we collected 10 μl samples, diluted them serially, and then
(§13) 330 plated them on tryptic soy agar (TSA) (BD Difco, NJ, USA) plates. We incubated the TSA plates
(§14) 331 for 18 hours at 37°C for colony counting. We performed these experiments in duplicate. As a
(§15) 332 comparison, we prepared the exponential cells of S. aureus MW2 and VRS1 in PBS and analyzed
(§16) 333 their killing kinetics in the same manner as described for persister cells.

[4] = tested on: S. aureus VRS1 (VRSA) exponential and persister cells; assay: S. aureus persister cell and time-kill assays (VRS1); format: cell-based, Staphylococcus aureus; conditions: 10 × MIC
Method: as §1, §2, §3, §4, §5, §6, §7, §8, §9, §10, §11, §12, §13, §14, §15, §16

S. aureus isolates [5] = tested on: S. aureus isolates
Method: as §17, §18, §19, §20, §21, §22, §23

[6] = S. aureus BF1 (clinical isolate)
[7] = S. aureus BF2 (clinical isolate)
[8] = S. aureus BF3 (clinical isolate)
[9] = S. aureus BF4 (clinical isolate)
[10] = S. aureus BF5 (clinical isolate)
[11] = S. aureus BF6 (clinical isolate)
[12] = S. aureus BF7 (clinical isolate)
[13] = S. aureus BF8 (clinical isolate)
[14] = S. aureus BF9 (clinical isolate)
[15] = S. aureus BF10 (clinical isolate)
[16] = S. aureus BF11 (clinical isolate)

## CN[C@H](CC(C)C)C(=O)N[C@H]1C(=O)N[C@@H](CC(N)=O)C(=O)N[C@H]2C(=O)N[C@H]3C(=O)N[C@H](C(=O)N[C@H](C(=O)O)c4cc(O)cc(O)c4-c4cc3ccc4O)[C@H](O)c3ccc(c(Cl)c3)Oc3cc2cc(c3O[C@@H]2O[C@H](CO)[C@@H](O)[C@H](O)[C@H]2O[C@H]2C[C@](C)(N)[C@H](O)[C@H](C)O2)Oc2ccc(cc2Cl)[C@H]1O [Vancomycin, reference compound]
[1]; 4 μg/ml, replicate 1
  Established biofilm, biomass (crystal violet), percentage of untreated: 149.693
  Established biofilm, live-cell viability (XTT), percentage of untreated: 100.129
[1]; 4 μg/ml, replicate 2
  Established biofilm, biomass (crystal violet), percentage of untreated: 84.8543
  Established biofilm, live-cell viability (XTT), percentage of untreated: 106.559
[1]; 4 μg/ml, replicate 3
  Established biofilm, biomass (crystal violet), percentage of untreated: 49.5143
  Established biofilm, live-cell viability (XTT), percentage of untreated: 106.192
[1]; 8 μg/ml, replicate 1
  Established biofilm, biomass (crystal violet), percentage of untreated: 88.3691
  Established biofilm, live-cell viability (XTT), percentage of untreated: 102.865
[1]; 8 μg/ml, replicate 2
  Established biofilm, live-cell viability (XTT), percentage of untreated: 105.547
[1]; 8 μg/ml, replicate 3
  Established biofilm, biomass (crystal violet), percentage of untreated: 88.3308
  Established biofilm, live-cell viability (XTT), percentage of untreated: 106.722
[1]; 16 μg/ml, replicate 1
  Established biofilm, biomass (crystal violet), percentage of untreated: 138.471
  Established biofilm, live-cell viability (XTT), percentage of untreated: 64.3129
[1]; 16 μg/ml, replicate 2
  Established biofilm, biomass (crystal violet), percentage of untreated: 273.773
  Established biofilm, live-cell viability (XTT), percentage of untreated: 78.7072
[1]; 16 μg/ml, replicate 3
  Established biofilm, biomass (crystal violet), percentage of untreated: 273.774
  Established biofilm, live-cell viability (XTT), percentage of untreated: 47.5625
[1]; 32 μg/ml, replicate 1
  Established biofilm, biomass (crystal violet), percentage of untreated: 98.1851
  Established biofilm, live-cell viability (XTT), percentage of untreated: 0.7061
[1]; 32 μg/ml, replicate 2
  Established biofilm, biomass (crystal violet), percentage of untreated: 78.1697
  Established biofilm, live-cell viability (XTT), percentage of untreated: 1.691
[1]; 32 μg/ml, replicate 3
  Established biofilm, biomass (crystal violet), percentage of untreated: 90.9509
  Established biofilm, live-cell viability (XTT), percentage of untreated: 6.084
S. aureus isolates [2]; MRSA, S. aureus JE2 (MRSA)
  MIC: 1 µg/mL (≈ 0.69 µM)
S. aureus isolates [2]; [6]
  MIC: 0.5 µg/mL (≈ 0.345 µM)
S. aureus isolates [2]; [7]
  MIC: 2 µg/mL (≈ 1.38 µM)
S. aureus isolates [2]; [8]
  MIC: 1 µg/mL (≈ 0.69 µM)
S. aureus isolates [2]; [9]
  MIC: 2 µg/mL (≈ 1.38 µM)
S. aureus isolates [2]; [10]
  MIC: 1 µg/mL (≈ 0.69 µM)
S. aureus isolates [2]; [11]
  MIC: 1 µg/mL (≈ 0.69 µM)
S. aureus isolates [2]; [12]
  MIC: 1 µg/mL (≈ 0.69 µM)
S. aureus isolates [2]; [13]
  MIC: 2 µg/mL (≈ 1.38 µM)
S. aureus isolates [2]; [14]
  MIC: 0.5 µg/mL (≈ 0.345 µM)
S. aureus isolates [2]; [15]
  MIC: 2 µg/mL (≈ 1.38 µM)
S. aureus isolates [2]; [16]
  MIC: 2 µg/mL (≈ 1.38 µM)
S. aureus isolates [2]; VISA, S. aureus AR0215 (VISA)
  MIC: 2 µg/mL (≈ 1.38 µM)
S. aureus isolates [2]; VISA, S. aureus AR0216 (VISA)
  MIC: 4 µg/mL (≈ 2.76 µM)
S. aureus isolates [2]; VISA, S. aureus AR0217 (VISA)
  MIC: 2 µg/mL (≈ 1.38 µM)
S. aureus isolates [2]; VISA, S. aureus AR0219 (VISA)
  MIC: > 4 µg/mL
S. aureus isolates [2]; VISA, S. aureus AR0225 (VISA)
  MIC: 2 µg/mL (≈ 1.38 µM)
S. aureus isolates [2]; VRSA, S. aureus VRS1 (VRSA)
  MIC: > 4 µg/mL

## H-GLFKVIKKLLKVI-NH2 [CIT-8]
[3]
  Time to complete eradication of MRSA persister cells: ≤ 30 min
[4]
  Time to eradication of exponential and VRSA persister cells: ≤ 120 min
[1]; 4 μg/ml, replicate 1
  Established biofilm, biomass (crystal violet), percentage of untreated: 131.685
  Established biofilm, live-cell viability (XTT), percentage of untreated: 82.5027
[1]; 4 μg/ml, replicate 2
  Established biofilm, biomass (crystal violet), percentage of untreated: 134.586
  Established biofilm, live-cell viability (XTT), percentage of untreated: 94.0114
[1]; 4 μg/ml, replicate 3
  Established biofilm, biomass (crystal violet), percentage of untreated: 61.6564
  Established biofilm, live-cell viability (XTT), percentage of untreated: 89.5709
[1]; 8 μg/ml, replicate 1
  Established biofilm, biomass (crystal violet), percentage of untreated: 62.9601
  Established biofilm, live-cell viability (XTT), percentage of untreated: 83.9897
[1]; 8 μg/ml, replicate 2
  Established biofilm, biomass (crystal violet), percentage of untreated: 123.287
  Established biofilm, live-cell viability (XTT), percentage of untreated: 89.9036
[1]; 8 μg/ml, replicate 3
  Established biofilm, biomass (crystal violet), percentage of untreated: 70.3988
  Established biofilm, live-cell viability (XTT), percentage of untreated: 92.7553
[1]; 16 μg/ml, replicate 1
  Established biofilm, biomass (crystal violet), percentage of untreated: 49.8211
  Established biofilm, live-cell viability (XTT), percentage of untreated: 6.002
[1]; 16 μg/ml, replicate 2
  Established biofilm, biomass (crystal violet), percentage of untreated: 67.6508
  Established biofilm, live-cell viability (XTT), percentage of untreated: 15.664
[1]; 16 μg/ml, replicate 3
  Established biofilm, biomass (crystal violet), percentage of untreated: 56.1605
  Established biofilm, live-cell viability (XTT), percentage of untreated: 21.3742
[1]; 32 μg/ml, replicate 1
  Established biofilm, biomass (crystal violet), percentage of untreated: 28.3231
  Established biofilm, live-cell viability (XTT), percentage of untreated: 9.9063
[1]; 32 μg/ml, replicate 2
  Established biofilm, biomass (crystal violet), percentage of untreated: 39.7878
  Established biofilm, live-cell viability (XTT), percentage of untreated: 2.777
[1]; 32 μg/ml, replicate 3
  Established biofilm, biomass (crystal violet), percentage of untreated: 32.068
  Established biofilm, live-cell viability (XTT), percentage of untreated: 4.02
[1]; XTT
  Concentration killing 50% of live cells in 24 h established biofilm: 12 µg/mL
[1]; crystal violet, 24 h established biofilm
  MBEC50 (50% of biomass disrupted): 24 µg/mL
S. aureus isolates [5]; S. aureus AR0215 (VISA)
  MIC: 4 µg/mL
S. aureus isolates [5]; S. aureus AR0216 (VISA)
  MIC: 8 µg/mL
S. aureus isolates [5]; S. aureus AR0217 (VISA)
  MIC: 4 µg/mL
S. aureus isolates [5]; S. aureus AR0219 (VISA)
  MIC: 8 µg/mL
S. aureus isolates [5]; S. aureus AR0225 (VISA)
  MIC: 4 µg/mL
S. aureus isolates [5]; [6]
  MIC: 4 µg/mL
S. aureus isolates [5]; [7]
  MIC: 8 µg/mL
S. aureus isolates [5]; [8]
  MIC: 8 µg/mL
S. aureus isolates [5]; [9]
  MIC: 4 µg/mL
S. aureus isolates [5]; [10]
  MIC: 4 µg/mL
S. aureus isolates [5]; [11]
  MIC: 4 µg/mL
S. aureus isolates [5]; [12]
  MIC: 4 µg/mL
S. aureus isolates [5]; [13]
  MIC: 4 µg/mL
S. aureus isolates [5]; [14]
  MIC: 4 µg/mL
S. aureus isolates [5]; [15]
  MIC: 4 µg/mL
S. aureus isolates [5]; [16]
  MIC: 4 µg/mL
S. aureus isolates [5]; S. aureus JE2 (MRSA)
  MIC: 4 µg/mL
S. aureus isolates [5]; S. aureus VRS1 (VRSA)
  MIC: 4 µg/mL
S. aureus isolates [5]; range over the isolates of Table 3
  MIC against various VRSA, MRSA, VISA, and S. aureus clinical isolates: 4 to 8 µg/mL

From paper PMC12165799, “Antimicrobial peptide developed with machine learning sequence optimization targets drug resistant Staphylococcus aureus in mice” (The Journal of Clinical Investigation, 2025)
